{
  "source": "patent US12594266B2",
  "about": "“Triterpenoid antifungals for the treatment or prevention of Pneumocystis spp. pneumonia” (priority 2019, dated 2026)",
  "key": {"[1]": {"conditions": "patients with HIV; cited from earlier work"}, "[2]": {"system": "P. murina", "assay": "Mouse model of prophylaxis for PCP (C3H/HeN mice, intranasal P. murina)", "format": "in vivo, Pneumocystis murina", "conditions": "for Percent Survival at Day 7 / Percent Survival at Day 14 / Percent Survival at Day 21 / Percent Survival at Day 28 / Percent Survival at Day 35 / Percent Survival at Day 42: prophylaxis, mice", "protocol": "Compound Preparation: SCY-078 (ibrexafungerp) was prepared in 0.5% methyl cellulose for oral administration. A correction factor of 1.37 for this lot was taken into account for salt and water content. Mice in the high dose group received 0.6 mg of SCY-078 BID, mid dose group received 0.3 mg of SCY-078 BID, and low dose group received 0.15 mg of SCY-078 BID, based on average mouse weights of 20 g.\nP. murina prophylaxis study method: C3H/HeN mice (Charles River) were infected by intranasal inoculation of P. murina organisms at 2×10^6/50 μl from a liquid nitrogen repository. Prior to inoculation, the P. murina were pre-incubated overnight in RPMI 1640 medium supplemented with calf serum and antibiotics to eliminate any bacterial contamination. The immune systems of the mice were suppressed by the addition of dexamethasone at 4 mg/liter to acidified drinking water (hydrochloric acid at 1 ml/liter). Acidification is used to prevent secondary microbial infections. The mice were divided into a negative (non-treated) control group (control steroid—C/S), positive control group (trimethoprim/sulfamethoxazole—TMP/SMX) and treatment groups. SCY-078 was administered orally (po) BID at the specified doses. The mice were started on the prophylaxis regimen at the same time they were inoculated. Immune suppression and treatment continued for the entire 6-week study. At the conclusion of that time, the mice were euthanized by CO2 and lungs processed for analysis by homogenization. Slides were made from the lung homogenates at different dilutions and stained with Diff-Quik to quantify total nuclei (trophic forms) and with cresyl echt violet to quantify the asci (cyst forms).\n(§1) Calculations: Efficacy was based on the reduction of organism burden between the treatment groups and the negative control group as determined by microscopic evaluation. The nuclei and asci counts for each lung were log transformed and statistical analysis was determined by the analysis of variance (ANOVA); individual groups were compared by the Student-Newman-Keuls t test for multiple comparisons using GraphPad Prism. Statistical significance was accepted at a P value≤0.05."}, "[3]": {"system": "P. murina", "assay": "Mouse model of treatment of PCP, 28-42 days (Balb/c mice)", "format": "in vivo, Pneumocystis murina", "protocol": "Compound Preparation: SCY-078 (ibrexafungerp) was prepared in 0.5% methyl cellulose for oral administration. A correction factor of 1.37 was taken into account for salt and water content. […]\nP. murina treatment study methods: Balb/c mice ordered from Charles River were infected with P. murina pneumonia through exposure to mice with a fulminant P. murina infection (seed mice). These mice were immune suppressed by the addition of dexamethasone at 4 mg/liter to the drinking water. Sulfuric acid at 1 ml/liter was also added to the drinking water for disinfection. The seed mice were rotated within the cages for 2 weeks and then removed. After the mice developed a moderate infection level (approximately 5 weeks), the mice were divided into a negative control group (control steroid), positive control group (TMP/SMX), and treatment groups. Drugs to be tested were administered by oral gavage (PO) on a mg/kg/BID basis for up to 6 weeks. At the end of the treatment, the mice were euthanized by CO2 and lungs were processed for analysis. Slides were made from the lung homogenates at different dilutions and stained with Diff-Quik™ to quantify the nuclei (all life cycle stages) and with cresyl echt violet to quantify the asci.\nas §1"}, "[4]": {"conditions": "human, in vivo", "text": "The safety and tolerability of SCY-078 has been evaluated in more than 900 subjects in ˜20 clinical trials, at different doses and treatment durations, including administration for up to 1 year. […] Serious adverse events possibly related to SCY-078 have been very rare and interruption or discontinuation of therapy due to adverse reactions has been uncommon. Additionally, the safety profile of oral SCY-078 has been evaluated in standard long-term non-clinical toxicology studies including administration for 9 months in dogs and 6 months in rats, at doses and exposures higher than those anticipated in humans, in line with ICH guidelines. The results from these non-clinical studies support the long-term administration of oral SCY-078 in humans. SCY-078 is currently under evaluation in ongoing clinical trials for the treatment of fungal infections such as candidiasis and aspergillosis. SCY-078 has not been evaluated in clinical trials for the treatment or prevention of PCP."}, "[5]": {"system": "P. murina", "assay": "Mouse model of treatment of PCP, early response (C3H/HeN mice)", "format": "in vivo, Pneumocystis murina"}, "[6]": {"conditions": "15 and 10 mg/kg groups, days 28 and 35"}, "[7]": {"conditions": "all dose levels (15, 10, 5 mg/kg BID po), days 28, 35 and 42"}, "[8]": {"conditions": "30 mg/kg BID po, 6 weeks prophylaxis"}, "[9]": {"conditions": "all 3 dose levels (30, 15, 7.5 mg/kg BID po), 6 weeks prophylaxis, lung"}, "[10]": {"conditions": "both dose levels (30 and 15 mg/kg BID po), Day 14 and Day 21"}},
  "data": [
    {"molecule": "Trimethoprim-sulfamethoxazole [TMP/SMX, reference compound]", "values": [
      {"measurement": "hepatitis", "setting": "[1]", "value": "20 % of patients"},
      {"measurement": "thrombocytopenia", "setting": "[1]", "value": "15 % of patients"},
      {"measurement": "Percent Survival at Day 7", "setting": "[2]; 50/250 mg/kg 3x/wk", "value": 100, "unit": "%"},
      {"measurement": "Percent Survival at Day 14", "setting": "[2]; 50/250 mg/kg 3x/wk", "value": 90, "unit": "%"},
      {"measurement": "Percent Survival at Day 21", "setting": "[2]; 50/250 mg/kg 3x/wk", "value": 90, "unit": "%"},
      {"measurement": "Percent Survival at Day 28", "setting": "[2]; 50/250 mg/kg 3x/wk", "value": 90, "unit": "%"},
      {"measurement": "Percent Survival at Day 35", "setting": "[2]; 50/250 mg/kg 3x/wk", "value": 90, "unit": "%"},
      {"measurement": "Percent Survival at Day 42", "setting": "[2]; 50/250 mg/kg 3x/wk", "value": 90, "unit": "%"}
    ]},
    {"molecule": "CC(C)[C@@H](C)[C@@]1(C)CC[C@]2(C)[C@H]3CC[C@@H]4[C@@]5(COC[C@@]4(C)[C@@H](OC[C@](C)(N)C(C)(C)C)[C@H](n4ncnc4-c4ccncc4)C5)C3=CC[C@@]2(C)[C@@H]1C(=O)O", "note": "[SCY-078, (1S,4aR,6aS,7R,8R,10aR,10bR,12aR,14R,15R)-15-[[(2R)-2-amino-2,3,3-trimethylbutyl]oxy]-8-[(1R)-1,2-dimethylpropyl]-14-[5-(4-pyridinyl)-1H-1,2,4-triazol-1-yl]-1,6,6a, 7,8,9,10,10a, 10b, 11,12,12a-dodecahydro-1,6a, 8,10a-tetramethyl-4H-1,4a-propano-2H-phenanthro [1,2-c]pyran-7-carboxylic acid]", "values": [
      {"measurement": "asci observed in lung", "setting": "[3]; [6]", "value": "No asci were observed"},
      {"measurement": "reduction of asci burden compared with positive control (TMP/SMX)", "setting": "[3]; [6]", "value": "worked equally as well"},
      {"measurement": "asci observed in lung", "setting": "[3]; all 3 dose groups, day 42", "value": "some asci were observed"},
      {"measurement": "asci burdens versus vehicle treated negative control group (C/S)", "setting": "[3]; [7]", "value": "significantly reduced"},
      {"measurement": "nuclei burdens versus vehicle treated negative control group (C/S)", "setting": "[3]; [7]", "value": "significantly reduced"},
      {"measurement": "reduction of asci burden compared with positive control (TMP/SMX)", "setting": "[3]; all dose levels, day 42", "value": "worked equally well"},
      {"measurement": "interruption or discontinuation of therapy due to adverse reactions", "setting": "[4]", "value": "uncommon"},
      {"measurement": "most common adverse events", "setting": "[4]", "value": "mild to moderate, transient gastrointestinal disorders"},
      {"measurement": "serious adverse events possibly related to SCY-078", "setting": "[4]", "value": "very rare"},
      {"measurement": "Percent Survival at Day 7", "setting": "[2]; 7.5 mg/kg BID po", "value": 100, "unit": "%"},
      {"measurement": "Percent Survival at Day 14", "setting": "[2]; 7.5 mg/kg BID po", "value": 90, "unit": "%"},
      {"measurement": "Percent Survival at Day 21", "setting": "[2]; 7.5 mg/kg BID po", "value": 90, "unit": "%"},
      {"measurement": "Percent Survival at Day 28", "setting": "[2]; 7.5 mg/kg BID po", "value": 90, "unit": "%"},
      {"measurement": "Percent Survival at Day 35", "setting": "[2]; 7.5 mg/kg BID po", "value": 90, "unit": "%"},
      {"measurement": "Percent Survival at Day 42", "setting": "[2]; 7.5 mg/kg BID po", "value": 90, "unit": "%"},
      {"measurement": "Percent Survival at Day 7", "setting": "[2]; 15 mg/kg BID po", "value": 100, "unit": "%"},
      {"measurement": "Percent Survival at Day 14", "setting": "[2]; 15 mg/kg BID po", "value": 90, "unit": "%"},
      {"measurement": "Percent Survival at Day 21", "setting": "[2]; 15 mg/kg BID po", "value": 90, "unit": "%"},
      {"measurement": "Percent Survival at Day 28", "setting": "[2]; 15 mg/kg BID po", "value": 80, "unit": "%"},
      {"measurement": "Percent Survival at Day 35", "setting": "[2]; 15 mg/kg BID po", "value": 80, "unit": "%"},
      {"measurement": "Percent Survival at Day 42", "setting": "[2]; 15 mg/kg BID po", "value": 80, "unit": "%"},
      {"measurement": "reduction of asci burden compared with TMP/SMX", "setting": "[2]; [8]", "value": "performed equally as well"},
      {"measurement": "survival versus vehicle treated negative control group", "setting": "[2]; [8]", "value": "significant improvement in survival"},
      {"measurement": "Percent Survival at Day 7", "setting": "[2]; 30 mg/kg BID po", "value": 100, "unit": "%"},
      {"measurement": "Percent Survival at Day 14", "setting": "[2]; 30 mg/kg BID po", "value": 100, "unit": "%"},
      {"measurement": "Percent Survival at Day 21", "setting": "[2]; 30 mg/kg BID po", "value": 100, "unit": "%"},
      {"measurement": "Percent Survival at Day 28", "setting": "[2]; 30 mg/kg BID po", "value": 100, "unit": "%"},
      {"measurement": "Percent Survival at Day 35", "setting": "[2]; 30 mg/kg BID po", "value": 100, "unit": "%"},
      {"measurement": "Percent Survival at Day 42", "setting": "[2]; 30 mg/kg BID po, * statistically significant difference vs C/S group", "value": "100* Percent"},
      {"measurement": "asci burden versus vehicle treated negative control group (C/S)", "setting": "[2]; [9]", "value": "significantly reduced"},
      {"measurement": "nuclei burden versus vehicle treated negative control group (C/S)", "setting": "[2]; [9]", "value": "significantly reduced"},
      {"measurement": "magnitude of the effect against nuclei burden compared with TMP/SMX", "setting": "[5]; both dose levels", "value": "lower than observed with the TMP/SMX control"},
      {"measurement": "asci burdens versus vehicle treated negative control group (C/S)", "setting": "[5]; [10]", "value": "significantly reduced"},
      {"measurement": "nuclei burdens versus vehicle treated negative control group (C/S)", "setting": "[5]; [10]", "value": "significantly reduced"},
      {"measurement": "extent of asci burden reduction compared with TMP/SMX", "setting": "[5]; both dose levels, Day 14 and Day 21", "value": "to a similar extent"},
      {"measurement": "reduction of asci burden compared with TMP/SMX", "setting": "[5]; both dose levels, day 7", "value": "statistically significantly better"}
    ]}
  ]
}
